Experimental data published in publication PMC12454493, “Insight on novel sulfamoylphenyl pyrazole derivatives as anticancer carbonic anhydrase inhibitors” (Molecular Diversity, 2024).
Where “and” joins values, the source holds several entries; their conditions need not be identical. Equal entries are not always repeated.

Experiments:
UO-31 = experiment: NCI-60 one-dose SRB screen (Renal Cancer); format: cell-based; conditions: Homo sapiens, single dose 10 µM, 48 h, read-out: Growth inhibition percent (GI %)
Description: (§1) The National Cancer Institute (NCI) Developmental Therapeutic Program (www.dtp.nci.nih.gov) selected the 20 novel synthesized compounds 4a-e, 5a-e, 6a-c, 9a-e, 10 and 11 to test for their anticancer activity at a single dose of 10 µM using SRB assay. […] Supplementary Data S3; Table S1 presents the detailed screening results of the most promising compounds. The preliminary screening’s detailed results for the remaining compounds are elucidated in the (Supplementary Data S3; Table S2).
(§2) The guidelines of the Drug Evaluation Branch’s protocol at the NCI in Bethesda served as the basis for the in vitro anticancer screening assays. at one dose 10 µM against a panel of 60 cancer cell lines. The human tumor cell lines used belonged to nine panels: leukemia, melanoma, lung, colon, CNS, ovarian, renal, prostate and breast cancers using the sulforhodamine B (SRB) assay in a 48 h drug exposure protocol.

RXF 393 = experiment: NCI-60 one-dose SRB screen (Renal Cancer); format: cell-based; conditions: Homo sapiens, single dose 10 µM, 48 h, read-out: Growth inhibition percent (GI %)
Description: as §1, §2

A498 = experiment: NCI-60 one-dose SRB screen (Renal Cancer); format: cell-based; conditions: Homo sapiens, single dose 10 µM, 48 h, read-out: Growth inhibition percent (GI %)
Description: as §1, §2

SF-268 = experiment: NCI-60 one-dose SRB screen (CNS Cancer); format: cell-based; conditions: Homo sapiens, single dose 10 µM, 48 h, read-out: Growth inhibition percent (GI %)
Description: as §1, §2

SF-539 = experiment: NCI-60 one-dose SRB screen (CNS Cancer); format: cell-based; conditions: Homo sapiens, single dose 10 µM, 48 h, read-out: Growth inhibition percent (GI %)
Description: as §1, §2

SNB-19 = experiment: NCI-60 one-dose SRB screen (CNS Cancer); format: cell-based; conditions: Homo sapiens, single dose 10 µM, 48 h, read-out: Growth inhibition percent (GI %)
Description: as §1, §2

U251 = experiment: NCI-60 one-dose SRB screen (CNS Cancer); format: cell-based; conditions: Homo sapiens, U-251, single dose 10 µM, 48 h, read-out: Growth inhibition percent (GI %)
Description: as §1, §2

SF-295 = experiment: NCI-60 one-dose SRB screen (CNS Cancer); format: cell-based; conditions: Homo sapiens, single dose 10 µM, 48 h, read-out: Growth inhibition percent (GI %)
Description: as §1, §2

SNB-75 = experiment: NCI-60 one-dose SRB screen (CNS Cancer); format: cell-based; conditions: Homo sapiens, single dose 10 µM, 48 h, read-out: Growth inhibition percent (GI %)
Description: as §1, §2

COLO 205 = experiment: NCI-60 one-dose SRB screen (Colon Cancer); format: cell-based; conditions: Homo sapiens, single dose 10 µM, 48 h, read-out: Growth inhibition percent (GI %)
Description: as §1, §2

KM12 = experiment: NCI-60 one-dose SRB screen (Colon Cancer); format: cell-based; conditions: Homo sapiens, single dose 10 µM, 48 h, read-out: Growth inhibition percent (GI %)
Description: as §1, §2

SW-620 = experiment: NCI-60 one-dose SRB screen (Colon Cancer); format: cell-based; conditions: Homo sapiens, single dose 10 µM, 48 h, read-out: Growth inhibition percent (GI %)
Description: as §1, §2

HCT-116 = experiment: NCI-60 one-dose SRB screen (Colon Cancer); format: cell-based; conditions: Homo sapiens, single dose 10 µM, 48 h, read-out: Growth inhibition percent (GI %)
Description: as §1, §2

HCT-15 = experiment: NCI-60 one-dose SRB screen (Colon Cancer); format: cell-based; conditions: Homo sapiens, single dose 10 µM, 48 h, read-out: Growth inhibition percent (GI %)
Description: as §1, §2

HCC-2998 = experiment: NCI-60 one-dose SRB screen (Colon Cancer); format: cell-based; conditions: Homo sapiens, single dose 10 µM, 48 h, read-out: Growth inhibition percent (GI %)
Description: as §1, §2

HT29 = experiment: NCI-60 one-dose SRB screen (Colon Cancer); format: cell-based; conditions: Homo sapiens, HT-29, single dose 10 µM, 48 h, read-out: Growth inhibition percent (GI %)
Description: as §1, §2

IGROV1 = experiment: NCI-60 one-dose SRB screen (Ovarian cancer); format: cell-based; conditions: Homo sapiens, IGROV-1, single dose 10 µM, 48 h, read-out: Growth inhibition percent (GI %)
Description: as §1, §2

NCI/ADR-RES = experiment: NCI-60 one-dose SRB screen (Ovarian cancer); format: cell-based; conditions: Homo sapiens, single dose 10 µM, 48 h, read-out: Growth inhibition percent (GI %)
Description: as §1, §2

OVCAR-8 = experiment: NCI-60 one-dose SRB screen (Ovarian cancer); format: cell-based; conditions: Homo sapiens, single dose 10 µM, 48 h, read-out: Growth inhibition percent (GI %)
Description: as §1, §2

OVCAR-4 = experiment: NCI-60 one-dose SRB screen (Ovarian cancer); format: cell-based; conditions: Homo sapiens, single dose 10 µM, 48 h, read-out: Growth inhibition percent (GI %)
Description: as §1, §2

OVCAR-5 = experiment: NCI-60 one-dose SRB screen (Ovarian cancer); format: cell-based; conditions: Homo sapiens, single dose 10 µM, 48 h, read-out: Growth inhibition percent (GI %)
Description: as §1, §2

SK-OV-3 = experiment: NCI-60 one-dose SRB screen (Ovarian cancer); format: cell-based; conditions: Homo sapiens, single dose 10 µM, 48 h, read-out: Growth inhibition percent (GI %)
Description: as §1, §2

OVCAR-3 = experiment: NCI-60 one-dose SRB screen (Ovarian cancer); format: cell-based; conditions: Homo sapiens, single dose 10 µM, 48 h, read-out: Growth inhibition percent (GI %)
Description: as §1, §2

hCA XII = hCA XII (Homo sapiens, UniProt O43570); experiment: CA inhibitory activity, spectrophotometric p-NPA assay; format: biochemical; conditions: p-NPA substrate, pH 7.5, 25 °C, triplicate; read-out: IC50 (µM) ± SD hCA XII
hCA XII, sequence (O43570 25-354): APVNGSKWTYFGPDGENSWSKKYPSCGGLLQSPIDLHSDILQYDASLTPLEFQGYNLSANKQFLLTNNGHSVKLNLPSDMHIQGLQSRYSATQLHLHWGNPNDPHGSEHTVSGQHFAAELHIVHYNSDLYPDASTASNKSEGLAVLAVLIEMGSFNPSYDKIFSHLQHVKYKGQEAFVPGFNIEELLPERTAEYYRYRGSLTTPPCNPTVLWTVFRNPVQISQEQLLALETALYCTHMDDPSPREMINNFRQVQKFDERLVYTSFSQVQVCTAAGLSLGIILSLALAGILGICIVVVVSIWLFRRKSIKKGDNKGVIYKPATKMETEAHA

MDA-MB-231/ATCC = experiment: NCI-60 one-dose SRB screen (Breast Cancer); format: cell-based; conditions: Homo sapiens, single dose 10 µM, 48 h, read-out: Growth inhibition percent (GI %)
Description: as §1, §2

T-47D = experiment: NCI-60 one-dose SRB screen (Breast Cancer); format: cell-based; conditions: Homo sapiens, T47D, single dose 10 µM, 48 h, read-out: Growth inhibition percent (GI %)
Description: as §1, §2

BT-549 = experiment: NCI-60 one-dose SRB screen (Breast Cancer); format: cell-based; conditions: Homo sapiens, single dose 10 µM, 48 h, read-out: Growth inhibition percent (GI %)
Description: as §1, §2

MCF-7 = experiment: NCI-60 one-dose SRB screen (Breast Cancer); format: cell-based; conditions: Homo sapiens, MCF7, single dose 10 µM, 48 h, read-out: Growth inhibition percent (GI %)
Description: as §1, §2

MDA-MB-468 = experiment: NCI-60 one-dose SRB screen (Breast Cancer); format: cell-based; conditions: Homo sapiens, single dose 10 µM, 48 h, read-out: Growth inhibition percent (GI %)
Description: as §1, §2

HS 578T = experiment: NCI-60 one-dose SRB screen (Breast Cancer); format: cell-based; conditions: Homo sapiens, single dose 10 µM, 48 h, read-out: Growth inhibition percent (GI %)
Description: as §1, §2

For `CCOC(=O)c1ccc(NC(=O)COC(=O)c2cn(-c3ccc(S(N)(=O)=O)cc3)nc2-c2ccccc2)cc1` [Compound 5a, 2-[(4-(Ethoxycarbonyl)phenyl)amino]-2-oxoethyl 3-phenyl-1-(4-sulfamoylphenyl)-1H-pyrazole-4-carboxylate], which inhibition at 10 µM (UO-31) is on record?
The inhibition at 10 µM was 62.7%.

And the inhibition at 10 µM (RXF 393)?
The inhibition at 10 µM was 66.5%.

What about the inhibition at 10 µM (A498) of the same compound?
The inhibition at 10 µM was 25.3%.

What about the inhibition at 10 µM (SF-268) of the same compound?
The inhibition at 10 µM was 52.2%.

What about the inhibition at 10 µM (SF-539) of the same compound?
Its inhibition at 10 µM is 46%.

And the inhibition at 10 µM (SNB-19)?
Its inhibition at 10 µM is 60.9%.

And the inhibition at 10 µM (U251)?
The inhibition at 10 µM was 58.5%.

What about the inhibition at 10 µM (SF-295) of the same compound?
Its inhibition at 10 µM is 60%.

And the inhibition at 10 µM (SNB-75)?
Its inhibition at 10 µM is 60.6%.

And the inhibition at 10 µM (COLO 205)?
The inhibition at 10 µM was 39.1%.

What about the inhibition at 10 µM (KM12) of the same compound?
Its inhibition at 10 µM is 73.6%.

And the inhibition at 10 µM (SW-620)?
Its inhibition at 10 µM is 47.1%.

What about the inhibition at 10 µM (HCT-116) of the same compound?
The inhibition at 10 µM was 75.8%.

And the inhibition at 10 µM (HCT-15)?
Its inhibition at 10 µM is 72.7%.

And the inhibition at 10 µM (HCC-2998)?
Its inhibition at 10 µM is 63.9%.

And the inhibition at 10 µM (HT29)?
Its inhibition at 10 µM is 78.8%.

What about the inhibition at 10 µM (IGROV1) of the same compound?
Its inhibition at 10 µM is 45.4%.

What about the inhibition at 10 µM (NCI/ADR-RES) of the same compound?
The inhibition at 10 µM was 16.6%.

And the inhibition at 10 µM (OVCAR-8)?
Its inhibition at 10 µM is 39.5%.

And the inhibition at 10 µM (OVCAR-4)?
The inhibition at 10 µM was 46.6%.

What about the inhibition at 10 µM (OVCAR-5) of the same compound?
Its inhibition at 10 µM is 28.7%.

What about the inhibition at 10 µM (SK-OV-3) of the same compound?
Its inhibition at 10 µM is 5.67%.

And the inhibition at 10 µM (OVCAR-3)?
The inhibition at 10 µM was 42.7%.

And the IC50 (hCA XII)?
The IC50 was 0.39 µM and 0.395 µM.

What about the inhibition at 10 µM (MDA-MB-231/ATCC) of the same compound?
The inhibition at 10 µM was 35.8%.

What about the inhibition at 10 µM (T-47D) of the same compound?
Its inhibition at 10 µM is 69.7%.

And the inhibition at 10 µM (BT-549)?
Its inhibition at 10 µM is 64.1%.

And the inhibition at 10 µM (MCF-7)?
Its inhibition at 10 µM is 81.6%.

What about the inhibition at 10 µM (MDA-MB-468) of the same compound?
Its inhibition at 10 µM is 62%.

What about the inhibition at 10 µM (HS 578T) of the same compound?
The inhibition at 10 µM was 44.6%.
